Reference: paper PMC7139375 (2020)

Assays:
[1] = test system: DDT_13 (DNA, aptamer) TCCAGCACTCCACGCATAACGAATTGTGCTCAATGCGCCCCTGCAGTGAATGTGGAATTTGTTATGCGTGCGACGGTGAA; assay: AuNPs colorimetric assay; conditions: room temperature
[2] = test system: DDT_13 (DNA, aptamer) TCCAGCACTCCACGCATAACGAATTGTGCTCAATGCGCCCCTGCAGTGAATGTGGAATTTGTTATGCGTGCGACGGTGAA; assay: SYBR Green I fluorescence assay; conditions: 137 mM NaCl, 2.5 mM KCl, 0.5 mM MgCl2, 1 mM CaCl2; phosphate binding buffer pH 7.2, room temperature; interferent prepared at 5 μM

Row | binding ([1]; interferent prepared at 7.4 μM) | binding ([1]; interferent prepared at 16 μM) | binding [2] | Structure (SMILES)
1 | no |  |  | CC(C)(c1cc(Br)c(O)c(Br)c1)c1cc(Br)c(O)c(Br)c1
2 |  | no | no | O=C(O)C(c1ccc(Cl)cc1)c1ccc(Cl)cc1

Second part, the compound before the results:

Row | Structure (SMILES) | binding ([1]; interferent prepared at 7.4 μM) | binding ([1]; interferent prepared at 16 μM) | binding [2]
3 | CCOC(=O)C(C)=O |  | no | 
4 | O=C(O)C(F)(F)C(F)(F)C(F)(F)C(F)(F)C(F)(F)C(F)(F)C(F)(F)F |  | no | 
5 | O=C(O)CNCP(=O)(O)O |  | no | no
